For 1 compound, Activity results are on record in ChEMBL document CHEMBL1159216, “Imperanene, a novel phenolic compound with platelet aggregation inhibitory activity from Imperata cylindrica” (J Nat Prod, 1995).

Molecules are shown by their SMILES. The source made the active and inactive calls. The calls are words filed in the database; no cut-off is given here.

In this test the test system is Platelet. Briefly: Antiplatelet activity in Japanese white rabbit platelet assessed as inhibition of thrombin-induced platelet aggregation at 600 uM preincubated 5 mins before thrombin challenge. In kind it is functional, cell-based. The following applies: Oryctolagus cuniculus.

Turning to `COc1cc(/C=C/[C@@H](CO)Cc2ccc(O)c(OC)c2)ccc1O`, the result was Active.
